Active and inactive are the calls of the source. The calls are words filed in the database; no cut-off is given here.
Tests used:
[1] = test system: T-cell; test: Inhibition of OVA257-264 peptide-induced T cell activation in SRA-deficient C57BL/6 mouse BMDC assessed as IL2 production at 10 to 30 uM after 56 hrs by ELISA; type: functional, cell-based
[2] = biological target: T1, Macrophage scavenger receptor types I and II (Mus musculus) (UniProt P30204); test: Inhibition of scavenger receptor A in mouse DC1.2 cells assessed as decrease in poly(I:C)-induced activation of STAT1 pretreated for 2 hrs before poly(I:C) stimulation measured after 3 hrs by immunoblotting; type: cell-based
T1 sequence (whole entry): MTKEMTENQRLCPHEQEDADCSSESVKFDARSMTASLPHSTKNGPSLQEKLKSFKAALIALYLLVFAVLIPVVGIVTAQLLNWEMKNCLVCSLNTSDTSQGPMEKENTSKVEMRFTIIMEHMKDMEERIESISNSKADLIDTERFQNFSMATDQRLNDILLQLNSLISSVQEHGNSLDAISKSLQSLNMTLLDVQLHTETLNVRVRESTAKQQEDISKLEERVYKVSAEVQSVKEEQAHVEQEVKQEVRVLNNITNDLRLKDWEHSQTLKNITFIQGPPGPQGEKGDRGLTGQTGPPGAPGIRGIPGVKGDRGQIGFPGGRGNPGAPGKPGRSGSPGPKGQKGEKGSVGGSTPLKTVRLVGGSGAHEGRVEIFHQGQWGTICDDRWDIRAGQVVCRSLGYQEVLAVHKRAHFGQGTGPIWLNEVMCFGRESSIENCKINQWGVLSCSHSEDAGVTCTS

[3] = biological target: T1, Macrophage scavenger receptor types I and II (Mus musculus); test: Inhibition of scavenger receptor A in wild type C57BL/6 mouse BMDC assessed as gp100 (25 to 33) peptide-induced T cell activation by measuring IL2 production at 20 uM after 56 hrs by ELISA
[4] = biological target: T1, Macrophage scavenger receptor types I and II (Mus musculus); test: Inhibition of scavenger receptor A in mouse DC1.2 cells assessed as decrease in poly(I:C)-induced activation of IRF3 pretreated for 2 hrs before poly(I:C) stimulation measured after 3 hrs by immunoblotting; type: cell-based
[5] = biological target: T1, Macrophage scavenger receptor types I and II (Mus musculus); test: Inhibition of scavenger receptor A in wild type C57BL/6 mouse BMDC assessed as OVA257-264 peptide-induced T cell activation by measuring IL2 production at 30 uM after 56 hrs by ELISA
[6] = biological target: T1, Macrophage scavenger receptor types I and II (Mus musculus); test: Inhibition of scavenger receptor A in wild type C57BL/6 mouse BMDC assessed as OVA257-264 peptide-induced T cell activation by measuring IL2 production at 10 uM after 56 hrs by ELISA
[7] = test system: B3Z; test: Inhibition of scavenger receptor A (unknown origin) in mouse B3Z cells assessed as anti-CD3/CD28 antibody-induced T cell activation by measuring transcription of il2 gene after 5 hrs by beta-galactosidase assay; type: cell-based

SMILES | inhibition [1] | inhibition [2] | inhibition [3] | inhibition [4] | inhibition [5] | inhibition [6] | inhibition [7]
O=C(O)c1cc(O)c2c(c1)C(=O)c1cccc(O)c1C2=O | inactive | Dose-dependent effect | Active | Dose-dependent effect | Active | Active | Dose-dependent effect
O=C(O)c1cc(O)c2c(c1)[C@@H]([C@H]1c3cc(C(=O)O)cc(O)c3C(=O)c3c(O[C@@H]4O[C@H](CO)[C@@H](O)[C@H](O)[C@H]4O)cccc31)c1cccc(O[C@@H]3O[C@H](CO)[C@@H](O)[C@H](O)[C@H]3O)c1C2=O | – | – | Active | – | – | – | –
